Assay results from PubChem BioAssay (NCI).
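Cultured in 96-well plates, cells were exposed to test compound for 48 hours across five concentrations. The concentration for full growth arrest is given as TGI.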

Legend:
Assay in all cases: growth of human tumour cells (NCI), 48 h
[1] = system: OVCAR-3 ovarian
[2] = system: KM12 colon
[3] = system: MDA-MB-231 breast
[4] = system: SF-268 CNS
[5] = system: NCI-H460 lung
[6] = system: COLO 205 colon
[7] = system: MDA-MB-435
[8] = system: RXF 393 renal
[9] = system: UO-31 renal
[10] = system: HS 578T breast
[11] = system: HL-60(TB) leukemia
[12] = system: SK-OV-3 ovarian
[13] = system: UACC-62 melanoma
[14] = system: M14 melanoma
[15] = system: MOLT-4 leukemia
[16] = system: OVCAR-5 ovarian
[17] = system: PC-3 prostate
[18] = system: NCI-H226 lung
[19] = system: SK-MEL-2 melanoma
[20] = system: HT29 colon
[21] = system: IGROV1 ovarian
[22] = system: SR leukemia
[23] = system: HCT-116 colon
[24] = system: UACC-257 melanoma
[25] = system: SK-MEL-5 melanoma
[26] = system: K-562 leukemia
[27] = system: HOP-92 NSCLC
[28] = system: SN12C renal
[29] = system: MDA-N
[30] = system: CCRF-CEM leukemia
[31] = system: SNB-75 CNS
[32] = system: A549 NSCLC
[33] = system: NCI-H23 lung
[34] = system: T-47D breast
[35] = system: DU-145 prostate
[36] = system: MALME-3M melanoma
[37] = system: RPMI-8226 leukemia
[38] = system: NCI-H522 lung
[39] = system: SF-539 CNS
[40] = system: SW-620 colon
[41] = system: LOX IMVI melanoma
[42] = system: U251 CNS
[43] = system: SK-MEL-28 melanoma
[44] = system: SNB-19 CNS
[45] = system: 786-0 renal
[46] = system: MCF7 breast
[47] = system: CAKI-1 renal
[48] = system: NCI/ADR-RES ovarian
[49] = system: HCT-15 colon
[50] = system: A498 renal
[51] = system: HOP-62 NSCLC
[52] = system: TK-10 renal
[53] = system: ACHN renal
[54] = system: SF-295 CNS
[55] = system: OVCAR-8 ovarian
[56] = system: OVCAR-4 ovarian
[57] = system: HCC-2998 colon
[58] = system: EKVX NSCLC
[59] = system: BT-549 breast

COc1cc(O)c2c(c1)OCC1(Cc3cc(OC)c(OC)cc31)C2=O (stereo not given)
TGI [1]: > 100 µM | TGI [2]: > 100 µM | TGI [3]: > 100 µM | TGI [4]: > 100 µM | TGI [5]: > 100 µM | TGI [6]: > 100 µM | TGI [7]: > 100 µM | TGI [8]: > 100 µM | TGI [9]: > 100 µM | TGI [10]: > 100 µM | TGI [11]: > 100 µM | TGI [12]: > 100 µM | TGI [13]: > 100 µM | TGI [14]: > 100 µM | TGI [15]: > 100 µM | TGI [16]: > 100 µM | TGI [17]: > 100 µM | TGI [18]: > 100 µM | TGI [19]: > 100 µM | TGI [20]: > 100 µM | TGI [21]: > 100 µM | TGI [22]: > 100 µM | TGI [23]: > 100 µM | TGI [24]: > 100 µM | TGI [25]: 26.7 µM | TGI [26]: > 100 µM | TGI [27]: > 100 µM | TGI [28]: > 100 µM | TGI [29]: > 100 µM | TGI [30]: > 100 µM | TGI [31]: > 100 µM | TGI [32]: 66.8 µM | TGI [33]: > 100 µM | TGI [34]: 57.2 µM | TGI [35]: > 100 µM | TGI [36]: > 100 µM | TGI [37]: > 100 µM | TGI [38]: > 100 µM | TGI [39]: > 100 µM | TGI [40]: > 100 µM | TGI [41]: > 100 µM | TGI [42]: > 100 µM | TGI [43]: > 100 µM | TGI [44]: > 100 µM | TGI [45]: > 100 µM | TGI [46]: > 100 µM | TGI [47]: > 100 µM | TGI [48]: > 100 µM | TGI [49]: > 100 µM | TGI [50]: > 100 µM | TGI [51]: > 100 µM | TGI [52]: > 100 µM | TGI [53]: > 100 µM | TGI [54]: > 100 µM | TGI [55]: > 100 µM | TGI [56]: > 100 µM

O=C(NC(O)(C(F)(F)F)C(F)(F)F)c1ccccc1
TGI [1]: > 100 µM | TGI [2]: > 100 µM | TGI [3]: > 100 µM | TGI [4]: > 100 µM | TGI [5]: > 100 µM | TGI [6]: > 100 µM | TGI [7]: > 100 µM | TGI [8]: > 100 µM | TGI [9]: > 100 µM | TGI [10]: > 100 µM | TGI [11]: > 100 µM | TGI [12]: > 100 µM | TGI [14]: > 100 µM | TGI [15]: > 100 µM | TGI [16]: > 100 µM | TGI [17]: > 100 µM | TGI [18]: > 100 µM | TGI [19]: > 100 µM | TGI [20]: > 100 µM | TGI [21]: > 100 µM | TGI [22]: > 100 µM | TGI [57]: > 100 µM | TGI [23]: > 100 µM | TGI [24]: > 100 µM | TGI [25]: > 100 µM | TGI [26]: > 100 µM | TGI [27]: > 100 µM | TGI [28]: > 100 µM | TGI [29]: > 100 µM | TGI [30]: > 100 µM | TGI [31]: > 100 µM | TGI [58]: > 100 µM | TGI [32]: > 100 µM | TGI [33]: > 100 µM | TGI [34]: > 100 µM | TGI [35]: > 100 µM | TGI [36]: > 100 µM | TGI [37]: > 100 µM | TGI [38]: > 100 µM | TGI [39]: > 100 µM | TGI [40]: > 100 µM | TGI [41]: > 100 µM | TGI [42]: > 100 µM | TGI [43]: > 100 µM | TGI [44]: > 100 µM | TGI [45]: > 100 µM | TGI [46]: > 100 µM | TGI [47]: > 100 µM | TGI [48]: > 100 µM | TGI [49]: > 100 µM | TGI [50]: > 100 µM | TGI [51]: > 100 µM | TGI [52]: > 100 µM | TGI [53]: > 100 µM | TGI [54]: > 100 µM | TGI [55]: > 100 µM | TGI [56]: > 100 µM

CCCCCCN1CCc2c(C)c(C#N)c3nc4ccccc4n3c21
TGI [1]: > 100 µM | TGI [3]: > 100 µM | TGI [4]: > 100 µM | TGI [5]: > 100 µM | TGI [6]: > 100 µM | TGI [7]: 93.8 µM | TGI [8]: > 100 µM | TGI [9]: > 100 µM | TGI [10]: 75.6 µM | TGI [11]: > 100 µM | TGI [12]: > 100 µM | TGI [59]: > 100 µM | TGI [13]: > 100 µM | TGI [14]: > 100 µM | TGI [16]: > 100 µM | TGI [17]: > 100 µM | TGI [18]: > 100 µM | TGI [19]: > 100 µM | TGI [20]: > 100 µM | TGI [21]: > 100 µM | TGI [22]: > 100 µM | TGI [57]: > 100 µM | TGI [23]: > 100 µM | TGI [24]: > 100 µM | TGI [25]: > 100 µM | TGI [26]: > 100 µM | TGI [27]: > 100 µM | TGI [28]: > 100 µM | TGI [29]: > 100 µM | TGI [31]: > 100 µM | TGI [32]: > 100 µM | TGI [33]: > 100 µM | TGI [35]: > 100 µM | TGI [36]: > 100 µM | TGI [38]: > 100 µM | TGI [39]: > 100 µM | TGI [40]: > 100 µM | TGI [41]: > 100 µM | TGI [42]: > 100 µM | TGI [43]: > 100 µM | TGI [44]: > 100 µM | TGI [45]: > 100 µM | TGI [46]: 41.5 µM | TGI [48]: > 100 µM | TGI [49]: > 100 µM | TGI [50]: > 100 µM | TGI [51]: > 100 µM | TGI [52]: > 100 µM | TGI [53]: > 100 µM | TGI [54]: > 100 µM | TGI [55]: > 100 µM | TGI [56]: > 100 µM
